Data taken from the supplement of paper PMC10307832.

What was measured:
Experiment in all cases: relative viability (nuclei count vs DMSO), 5 days (fraction); higher = more cells survive
[1] = system: A-427
Outline: (§1)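 Lung cancer cell lines in 1536-well plates got either a single drug or a fixed anchor-drug dose together with five library-drug doses (not always all listed) in √10 steps, by pin tool, on the day after seeding. Nuclei were counted after 5 days, and relative viability is the treated-to-vehicle ratio of nuclei counts. Values are medians of duplicate plates.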

[2] = system: COR-L 105
Outline: as §1

[3] = system: ChaGo-K-1
Outline: as §1

[4] = system: EKVX
Outline: as §1

[5] = system: EMC-BAC-2
Outline: as §1

[6] = system: EPLC-272H
Outline: as §1

[7] = system: HARA
Outline: as §1

[8] = system: HCC-44
Outline: as §1

[9] = system: LK-2
Outline: as §1

[10] = system: LU99A
Outline: as §1

[11] = system: NCI-H1650
Outline: as §1

[12] = system: NCI-H1734
Outline: as §1

[13] = system: NCI-H1755
Outline: as §1

[14] = system: NCI-H1792
Outline: as §1

[15] = system: NCI-H1993
Outline: as §1

[16] = system: NCI-H2405
Outline: as §1

[17] = system: NCI-H358
Outline: as §1

[18] = system: NCI-H460
Outline: as §1

[19] = system: NCI-H522
Outline: as §1

[20] = system: NCI-H596
Outline: as §1

[21] = system: NCI-H647
Outline: as §1

[22] = system: RERF-LC-KJ
Outline: as §1

[23] = system: SW 900
Outline: as §1

Q: What does the source list for `CCNC(=O)c1noc(-c2cc(C(C)C)c(O)cc2O)c1-c1ccc(CN2CCOCC2)cc1` [Luminespib] + Nc1nc2[nH]cc(CCc3ccc(C(=O)N[C@@H](CCC(=O)O)C(=O)O)cc3)c2c(=O)[nH]1 [Pemetrexed] (partner 0.2 µM)?
A: relative viability ([1]; first compound 0.002 µM): 0.958; relative viability ([1]; first compound 0.006325 µM): 0.25; relative viability ([1]; first compound 0.02 µM): 0.812; relative viability ([1]; first compound 0.06325 µM): 0.495; relative viability ([1]; first compound 0.2 µM): 0.256; relative viability ([2]; first compound 0.002 µM): 1.11; relative viability ([2]; first compound 0.006325 µM): 0.952; relative viability ([2]; first compound 0.02 µM): 1.18; relative viability ([2]; first compound 0.06325 µM): 0.593; relative viability ([2]; first compound 0.2 µM): 0.24; relative viability ([3]; first compound 0.002 µM): 0.27; relative viability ([3]; first compound 0.006325 µM): 0.253; relative viability ([3]; first compound 0.02 µM): 0.253; relative viability ([3]; first compound 0.06325 µM): 0.248; relative viability ([3]; first compound 0.2 µM): 0.206; relative viability ([4]; first compound 0.002 µM): 0.417; relative viability ([4]; first compound 0.006325 µM): 0.255; relative viability ([4]; first compound 0.02 µM): 0.408; relative viability ([4]; first compound 0.06325 µM): 0.258; relative viability ([4]; first compound 0.2 µM): 0.115; relative viability ([5]; first compound 0.002 µM): 0.467; relative viability ([5]; first compound 0.006325 µM): 0.287; relative viability ([5]; first compound 0.02 µM): 0.573; relative viability ([5]; first compound 0.06325 µM): 0.383; relative viability ([5]; first compound 0.2 µM): 0.444; relative viability ([6]; first compound 0.002 µM): 0.41; relative viability ([6]; first compound 0.006325 µM): 0.266; relative viability ([6]; first compound 0.02 µM): 0.335; relative viability ([6]; first compound 0.06325 µM): 0.133; relative viability ([6]; first compound 0.2 µM): 0.113; relative viability ([7]; first compound 0.002 µM): 0.253; relative viability ([7]; first compound 0.006325 µM): 0.24; relative viability ([7]; first compound 0.02 µM): 0.273; relative viability ([7]; first compound 0.06325 µM): 0.172; relative viability ([7]; first compound 0.2 µM): 0.135; relative viability ([8]; first compound 0.002 µM): 0.613; relative viability ([8]; first compound 0.006325 µM): 0.611; relative viability ([8]; first compound 0.02 µM): 0.773; relative viability ([8]; first compound 0.06325 µM): 0.659; relative viability ([8]; first compound 0.2 µM): 0.657; relative viability ([9]; first compound 0.002 µM): 0.299; relative viability ([9]; first compound 0.006325 µM): 0.159; relative viability ([9]; first compound 0.02 µM): 0.221; relative viability ([9]; first compound 0.06325 µM): 0.0902; relative viability ([9]; first compound 0.2 µM): 0.0524; relative viability ([10]; first compound 0.002 µM): 0.192; relative viability ([10]; first compound 0.006325 µM): 0.198; relative viability ([10]; first compound 0.02 µM): 0.177; relative viability ([10]; first compound 0.06325 µM): 0.168; relative viability ([10]; first compound 0.2 µM): 0.127; relative viability ([11]; first compound 0.002 µM): 0.404; relative viability ([11]; first compound 0.006325 µM): 0.368; relative viability ([11]; first compound 0.02 µM): 0.426; relative viability ([11]; first compound 0.06325 µM): 0.152; relative viability ([11]; first compound 0.2 µM): 0.137; relative viability ([12]; first compound 0.002 µM): 0.475; relative viability ([12]; first compound 0.006325 µM): 0.406; relative viability ([12]; first compound 0.02 µM): 0.428; relative viability ([12]; first compound 0.06325 µM): 0.159; relative viability ([12]; first compound 0.2 µM): 0.143; relative viability ([13]; first compound 0.002 µM): 0.415; relative viability ([13]; first compound 0.006325 µM): 0.424; relative viability ([13]; first compound 0.02 µM): 0.415; relative viability ([13]; first compound 0.06325 µM): 0.264; relative viability ([13]; first compound 0.2 µM): 0.2; relative viability ([14]; first compound 0.002 µM): 0.816; relative viability ([14]; first compound 0.006325 µM): 0.615; relative viability ([14]; first compound 0.02 µM): 0.117; relative viability ([14]; first compound 0.06325 µM): 0.0474; relative viability ([14]; first compound 0.2 µM): 0.0496; relative viability ([15]; first compound 0.002 µM): 0.566; relative viability ([15]; first compound 0.006325 µM): 0.577; relative viability ([15]; first compound 0.02 µM): 0.557; relative viability ([15]; first compound 0.06325 µM): 0.284; relative viability ([15]; first compound 0.2 µM): 0.367; relative viability ([16]; first compound 0.002 µM): 1.08; relative viability ([16]; first compound 0.02 µM): 0.915; relative viability ([16]; first compound 0.06325 µM): 0.183; relative viability ([16]; first compound 0.2 µM): 0.179; relative viability ([17]; first compound 0.002 µM): 0.186; relative viability ([17]; first compound 0.006325 µM): 0.16; relative viability ([17]; first compound 0.02 µM): 0.167; relative viability ([17]; first compound 0.06325 µM): 0.147; relative viability ([17]; first compound 0.2 µM): 0.078; relative viability ([18]; first compound 0.002 µM): 0.0608; relative viability ([18]; first compound 0.006325 µM): 0.0558; relative viability ([18]; first compound 0.02 µM): 0.0687; relative viability ([18]; first compound 0.06325 µM): 0.0359; relative viability ([18]; first compound 0.2 µM): 0.0287; relative viability ([19]; first compound 0.002 µM): 1.01; relative viability ([19]; first compound 0.006325 µM): 0.974; relative viability ([19]; first compound 0.02 µM): 0.855; relative viability ([19]; first compound 0.06325 µM): 0.675; relative viability ([19]; first compound 0.2 µM): 0.353; relative viability ([20]; first compound 0.002 µM): 0.526; relative viability ([20]; first compound 0.006325 µM): 0.493; relative viability ([20]; first compound 0.02 µM): 0.548; relative viability ([20]; first compound 0.06325 µM): 0.518; relative viability ([20]; first compound 0.2 µM): 0.528; relative viability ([21]; first compound 0.002 µM): 0.202; relative viability ([21]; first compound 0.006325 µM): 0.189; relative viability ([21]; first compound 0.02 µM): 0.193; relative viability ([21]; first compound 0.06325 µM): 0.106; relative viability ([21]; first compound 0.2 µM): 0.0832; relative viability ([22]; first compound 0.002 µM): 0.474; relative viability ([22]; first compound 0.006325 µM): 0.449; relative viability ([22]; first compound 0.02 µM): 0.462; relative viability ([22]; first compound 0.06325 µM): 0.287; relative viability ([22]; first compound 0.2 µM): 0.219; relative viability ([23]; first compound 0.002 µM): 0.492; relative viability ([23]; first compound 0.006325 µM): 0.512; relative viability ([23]; first compound 0.02 µM): 0.427; relative viability ([23]; first compound 0.06325 µM): 0.133; relative viability ([23]; first compound 0.2 µM): 0.146
